{"source": "patent US20240400571A1", "about": "“5,6 UNSATURATED BICYCLIC HETEROCYLES USEFUL AS INHIBITORS OF NOD-LIKE RECEPTOR PROTEIN 3” (Merck Sharp & Dohme LLC, priority 2023, published 2024)", "molecular_target": "T1, NLRP3 inflammasome (Homo sapiens, UniProt Q96P20)", "T1 construct": "host or cells: THP-1 human monocytic cells, treated with PMA and stimulated with gramicidin", "T1 sequence (Q96P20 whole entry)": "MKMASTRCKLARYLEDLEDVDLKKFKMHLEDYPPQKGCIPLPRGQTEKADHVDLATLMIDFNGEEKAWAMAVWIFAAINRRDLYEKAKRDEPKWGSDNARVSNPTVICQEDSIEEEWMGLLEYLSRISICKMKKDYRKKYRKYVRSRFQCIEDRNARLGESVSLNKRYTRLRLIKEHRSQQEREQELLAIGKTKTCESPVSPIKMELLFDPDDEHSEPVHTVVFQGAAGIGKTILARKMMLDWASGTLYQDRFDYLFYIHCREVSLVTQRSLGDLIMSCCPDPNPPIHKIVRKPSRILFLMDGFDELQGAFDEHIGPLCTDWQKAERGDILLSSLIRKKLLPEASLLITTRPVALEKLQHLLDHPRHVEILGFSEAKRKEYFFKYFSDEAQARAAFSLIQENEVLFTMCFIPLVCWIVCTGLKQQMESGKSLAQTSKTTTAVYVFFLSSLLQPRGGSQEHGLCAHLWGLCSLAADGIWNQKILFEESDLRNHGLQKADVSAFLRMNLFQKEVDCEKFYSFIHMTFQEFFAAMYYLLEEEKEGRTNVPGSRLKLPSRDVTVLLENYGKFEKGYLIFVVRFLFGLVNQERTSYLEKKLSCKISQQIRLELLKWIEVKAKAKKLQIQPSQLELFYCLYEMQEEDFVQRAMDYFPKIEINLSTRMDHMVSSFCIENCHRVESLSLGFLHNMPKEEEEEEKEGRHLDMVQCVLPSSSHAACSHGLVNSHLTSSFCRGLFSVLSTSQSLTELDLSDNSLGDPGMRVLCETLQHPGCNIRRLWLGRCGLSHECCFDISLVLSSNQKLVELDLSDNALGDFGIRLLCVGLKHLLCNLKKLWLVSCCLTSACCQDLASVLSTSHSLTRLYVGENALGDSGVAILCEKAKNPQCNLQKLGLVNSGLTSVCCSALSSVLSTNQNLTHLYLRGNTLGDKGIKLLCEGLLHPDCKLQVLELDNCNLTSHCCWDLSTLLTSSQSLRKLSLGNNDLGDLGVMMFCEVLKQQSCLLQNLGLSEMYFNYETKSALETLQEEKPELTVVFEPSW", "assay": "ASC-SPECK formation in THP-1 cells after gramicidin stimulation (NLRP3 inflammasome activation)", "format": "cell-based", "conditions": "PMA-treated human monocytic THP-1 cells; compound 1 h before 12.5 μg/ml gramicidin, 3-hour treatment; ASC SPECK imaging; read-out: EC50 values (nM) for Examples that inhibit NLRP3 inflammasome activation", "procedure": "The ability of compounds to inhibit NLRP3 inflammasome activation was determined in vitro by monitoring formation of the ASC-SPECK in human monocytic THP-1 cells after stimulation. THP-1 cells (ATCC catalog #TIB-202) were maintained in complete growth media containing Roswell Park Memorial Institute RPMI (ATCC catalog #30-2001), 10% heat inactivated fetal bovine serum, 1× penicillin/streptomycin and 0.05 mM 2-mercaptoethanol. At the start of the assay, undifferentiated THP-1 cells were plated at a density of 20,000 cells per well in a 384-well plate (Poly-D-lysine coated Cell Carrier Ultra microplate, Perkin Elmer catalog #6057500) in complete growth media supplemented with 10 ng/ml phorbol 12-myristate 13-acetate (PMA; Sigma catalog #P8139), and then incubated overnight. The next day, media was replaced with assay media [RPMI (Gibco catalog #11875-093), 0.01% bovine serum albumin (BSA)]. Compounds were serially diluted in DMSO and then added to wells one hour prior to the addition of 12.5 μg/ml Gramicidin (Enzo Lifescience, catalog #ALX-350-233-M005). All incubations were carried out at 37° C. (5% CO2/95% air). Following a 3-hour treatment with gramicidin, cells are fixed with 4% paraformaldehyde and stored at 4° C. until immunofluorescence staining.\nImmunofluorescence staining: Anti-ASC antibody (MBL catalog #D086-3) was desalted and labeled with Alexa 488 antibody labeling kit (Thermo catalog #A20181) prior to use as described below. After fixation, the following steps were carried out at room temperature. Cells were first permeabilized with 0.3% Triton X-100 in phosphate-buffered saline (PBS) for 15 minutes and then incubated in blocking buffer containing 5% goat serum, 0.3% tween-20 and 0.03% sodium azide in PBS for 1 hour. Cells were stained with a mixture of ASC-Alexa 488 antibody (diluted 1:200 in blocking buffer) and nuclear stain DRAQ5 (1:5000 in blocking buffer, Thermo catalog #62251) in blocking buffer for 1 hour. Following a wash with 0.3% Tween-20 in PBS, plates were imaged with an Opera Phenix High Content Screening System. The number of DRAQ5 positive cells containing ASC SPECKS were quantified in each well.\nData analysis: EC50 values were calculated by standard curve-fitting analysis using an internally developed program in TIBCO Spotfire software."}
{"compound": "[2H]C([2H])([2H])N1CCC[C@@H](n2cnc3c(C)c(-c4ccc(C(F)(F)F)cc4O)nnc32)C1", "note": "[Example 35, (R)-2-(4-methyl-7-(1-(methyl-d3)piperidin-3-yl)-7H-imidazo[4,5-c]pyridazin-3-yl)-5-(trifluoromethyl)phenol]", "values": [{"measurement": "EC50", "value": 29, "unit": "nM"}]}
